Assay results as given in PMC7473840, “Identification of a molecular locus for normalizing dysregulated GABA release from interneurons in the Fragile X brain” (Molecular Psychiatry, 2018).
Entries after “also recorded” stand apart in the source; their conditions may differ.

What was measured:
[1] = ref Invitrogen; read-out: Kd (Ca2+ indicator); cited from earlier work
[2] = ref [45]; cited from earlier work
[3] = test system: BC–PN synapse, Fmr1-KO; assay: sIPSCs from PNs, Fmr1-KO synapses; type: cell-based, mouse; conditions: 10 µM applied to Fmr1-KO cerebellar slices; n = 8
[4] = test system: Kv1.2; assay: K+ current by voltage ramp, CHO cells expressing Kv1.2-WT; type: cell-based; conditions: 1 µM, n = 7
Excerpt: Fig. 3 Direct interaction between FMRP and Kv1.2 in a phosphorylation-specific manner. a Illustration of an alpha subunit of Kv1.2 channel with extensive details of intracellular C-terminus. b K^+ current generated by a voltage ramp (−90 to 100 mV, top) from CHO cells expressing WT (Kv1.2-WT, middle) or truncated Kv1.2 (Kv1.2-Δ429-500, bottom) before and after infusion of N-terminus FMRP protein (n-FMRP, H00002332-P01, Novus Biologicals, 1:100 dilution). c The changes in amplitude of K^+ current by n-FMRP is summarized for Kv1.2-WT (n = 8) and Kv1.2-Δ429-500 (n = 8) constructs. d Co-IP of Kv1.2 and FMRP in the absence or presence of three peptides targeting the sequence (436–457) of C-terminus of Kv1.2 as highlighted in a phosphorylated (PhosKv436-457), non-phosphorylated (Kv436-457), and phosphorylated scrambled peptide. e Summary of effect of the three peptides. […] The changes in the amplitude and frequency of sIPSCs are summarized in the right panels for PhosKv436-457 (n = 6, f), non-phosphorylated Kv436-457 (n = 6, g), and scrambled (n = 5, h) peptides.
Fig. 5 DHA rescue and graphical overview of the function of FMRP at the BC–PN synapses. a, b Currents generated by a voltage ramp (−90 to 100 mV) from CHO cells transfected with recombinant Kv1.2 in the absence (black) or presence (red) of DHA (1 µM). These currents are fit with a Boltzmann function: f(V) = Imax/(1+e^(V1/2−V)/Vc)+C, in which “Imax” denotes the theoretical value of the maximal amplitude of Kv1.2 currents; “V1/2” indicates the depolarization voltage needed to produce the half-maximal amplitude of the currents; “Vc” is the slope factor describing the steepness of the Boltzmann curve. The parameters for the two groups (n = 7) are summarized in (b). c, d sIPSCs recorded from PNs in Fmr1-KO slices with (bottom) or without (top) DHA (10 µM). Changes in the amplitude and frequency of sIPSC (n = 8) are quantified in (d). e, f APs from PNs before (top) and after (bottom) DHA application (10 µM). […] In WT BCs, there are two populations of Kv1.2 channels being in either non-phosphorylated or phosphorylated state (with C-termini colored in black and turquoise respectively; +/−P to symbolize phosphate modification). The N-terminus of FMRP dimers directly interact with C-terminus of Kv1.2 only in a phosphorylated state. This interaction enhances the gating (Pathway 1), membrane targeting (Pathway 2), and/or axonal trafficking (Pathway 3) of Kv1.2 in the nerve terminal to control its excitability and Ca^2+ dynamics (blue) critical for tuning inhibitory neurotransmission and ensuring the final output from principal neurons (i.e., PNs). […]

[5] = test system: WT mice; assay: Three-chambered sociability test, WT; type: in vivo, mouse; conditions: 200 mg/kg
Excerpt: (§1) The three-chambered sociability test was composed of three sessions: habituation (trail 1), sociability (trial 2), and social novelty (trial 3), which evaluated sociable behavior and recognition of social novelty. For habituation, 7–9-week-old testing male mouse was placed in the middle chamber and allowed to freely explore all three chambers. In the sociability session, a stranger mouse (the same strain and gender but never encountered before) was put underneath a grid cup and placed in one of the two side-chambers, while another identical empty cup was placed on the other side. In the social novelty session, another stranger mouse was put inside the previously empty cup. Each session lasted 9 min. Physical contacts around the cups with the nose, head, and forelimbs, were defined as sniffing behavior and used as an index for sociable behavior [47]. A camera, connected to a computer, was used to track mice activity using the ANY-maze software (ANY-maze, Stoelting Co., IL, USA). Testing was conducted 30 min after saline or DHA (200 mg/kg, Sigma) injection (intraperitoneal, i.p.) to minimize distress from drug administration and ensure normal physical activity that could be affected by DHA for a short period.

[6] = test system: adult Fmr1-KO mice; assay: Acoustic startle reflex (ASR); type: in vivo, mouse; conditions: chow enriched with 0.5% w/w DHA for 1 week; n = 11 versus n = 10 control; double-blind
Method: As previously described, acoustic startle response was measured from 7–9-week-old mice, which were submitted to no pulse or a pulse stimulation (120 dB, 40 ms) alone or in combination of a prepulse (either 72, 78, or 82 dB, 20 ms). Maximal startle response was recorded and compared between groups for all types of trials. The sound attenuated chambers and analysis software were obtained from San Diego Instruments (San Diego, USA). One week prior to testing, mice were fed with normal chow or calorically equivalent chow enriched with 0.5% DHA (Sigma) prepared by Research Diets (New Brunswick, USA). Diets were prepared with identical dyes to be indistinguishable by eye. Mice were tested for acoustic startle response only once between 4 p.m. and 7 p.m.

[7] = test system: PNs, Fmr1-KO cerebellar slices; assay: Spontaneous firing of PNs, cell-attached, Fmr1-KO; type: cell-based, mouse; conditions: 10 µM, Fmr1-KO, cell-attached; n = 7
[8] = test system: Fmr1-KO mice; assay: Three-chambered sociability test, Fmr1-KO; type: in vivo, mouse; conditions: 200 mg/kg i.p., 30 min before test; 7–9-week-old male; n = 7
Excerpt: as §1

Which Kd [1] does the source give for Fluo-4 here?
The Kd was 345 nM.

For CC/C=C\C/C=C\C/C=C\C/C=C\C/C=C\C/C=C\CCC(=O)O [DHA, docosahexaenoic acid], which “blood–brain barrier crossing” value [2] is on record?
The value was “can cross blood–brain barrier”.

What about the “amplitude and frequency of sIPSCs” value [3] of the same molecule?
Its value is “reduced amplitude and frequency of sIPSCs”.

What about the “half-activation voltage (V1/2)” value ([4]; Boltzmann fit) of the same molecule?
The value was “decreased the half-activation voltage (V1/2)”.

And the “maximal amplitude of Kv1.2 currents” value ([4]; Boltzmann fit)?
Its value is “the maximal amplitude was unaffected”.

What about the “slope factor (Vc)” value ([4]; Boltzmann fit) of the same molecule?
The value was “increased the slope factor (Vc)”.

And the “shift in Kv1.2 currents evoked by voltage ramp” value ([4]; ramp −90 to 100 mV)?
Its value is “a significant leftward shift in the Kv1.2 currents”.

What about the “distance travelled during the trials” value ([5]; WT, repeated one-way ANOVA, p>0.05) of the same molecule?
The value was “No significant differences”.

What about the “social behavior of WT mice” value ([5]; male C57BL/6J, n = 8, repeated two-way ANOVA) of the same molecule?
The value was “did not affect social performance of WT mice; also recorded: did not alter the social behaviors of WT animals”.

What about the “sniffing time, stranger versus empty cup” value ([5]; sociability session, WT, n = 8) of the same molecule?
Its value is “spent more time sniffing the stranger than the empty cup”.

What about the “sniffing time, novel stranger versus familiar mouse” value ([5]; social novelty session, WT, n = 8) of the same molecule?
Its value is “spent more time sniffing the novel stranger than the familiar one”.

And the “acoustic startle reflex from 120-dB sound stimulation” value [6]?
The value was “significantly attenuated ASR”.

What about the “spike (AP) frequency of PNs” value [7] of the same molecule?
The value was “increases the frequency of APs in the Fmr1-KO synapses; also recorded: enhanced the spike frequency of PNs, restoring the firing rate of Fmr1-KOs to the same level as the WTs”.

What about the social novelty recognition [8] of the same molecule?
Its social novelty recognition is “improved the deficient social novelty recognition”.
